The results in this text go back to patent US20240116985A1, “STAPLED PEPTIDES AND METHODS THEREOF” (priority 2020, published 2024).

Like-named read-outs stand apart in the source and are kept apart here.

One data set in a line: CHI Log D procedure. The format is physicochemical. Particulars: for CHI Log D: pH 7.4; for chromatographic logD: pH 7.4, CHI Log D.
Data set [1] concerns the target T1, full-length beta-Catenin (Uniprot ID P35222) (Homo sapiens, UniProt P35222).
T1 construct: 10 nM full-length beta-Catenin (Uniprot ID P35222)
T1 sequence (P35222 1-781): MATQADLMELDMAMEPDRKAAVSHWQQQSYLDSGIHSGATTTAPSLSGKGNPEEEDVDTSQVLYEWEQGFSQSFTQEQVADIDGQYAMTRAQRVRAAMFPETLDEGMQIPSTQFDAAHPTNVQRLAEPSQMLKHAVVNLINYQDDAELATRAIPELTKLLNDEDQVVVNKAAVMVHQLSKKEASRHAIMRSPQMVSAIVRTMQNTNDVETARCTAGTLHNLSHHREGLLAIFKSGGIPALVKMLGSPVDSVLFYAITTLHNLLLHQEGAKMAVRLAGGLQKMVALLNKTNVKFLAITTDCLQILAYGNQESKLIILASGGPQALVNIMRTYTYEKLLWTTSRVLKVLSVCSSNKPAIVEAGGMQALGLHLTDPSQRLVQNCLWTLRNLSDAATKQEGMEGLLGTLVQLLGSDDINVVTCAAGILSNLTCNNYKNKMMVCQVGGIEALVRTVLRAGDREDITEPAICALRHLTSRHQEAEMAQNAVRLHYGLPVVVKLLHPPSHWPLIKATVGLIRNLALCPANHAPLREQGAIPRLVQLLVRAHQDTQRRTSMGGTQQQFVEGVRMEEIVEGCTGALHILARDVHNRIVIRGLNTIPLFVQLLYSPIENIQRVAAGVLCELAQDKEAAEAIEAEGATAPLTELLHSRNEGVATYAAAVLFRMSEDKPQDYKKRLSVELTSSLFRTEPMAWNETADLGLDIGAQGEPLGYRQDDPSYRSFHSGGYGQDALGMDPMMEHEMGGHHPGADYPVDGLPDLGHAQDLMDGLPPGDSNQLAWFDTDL
Kind of data set: Fluorescence polarization IC50 (beta-catenin / 5FAM-TCF4 10-53 competition). The format is binding. For orientation: Fluorescence polarisation rises when a labelled molecule tumbles more slowly, as on binding a larger partner.

Setting [2] is: fluorescence polarization, read-out: beta-Catenin FP IC50.

For the molecule `CC[C@H](C)[C@@H]1NC(=O)[C@H](CC(=O)O)NC(=O)[C@]2(CC=CCCCC3(CCCC=CCCCCCC[C@@](C)(C(=O)N[C@@H](Cc4ccccc4)C(=O)N[C@@H](Cc4csc5ccccc45)C(=O)N[C@@H](Cc4c[nH]cn4)C(N)=O)NC(=O)[C@H](CC(N)=O)NC(=O)[C@H](Cc4ccccc4)NC(=O)[C@H](C)NC(=O)[C@H](C)NC(=O)[C@H](CC(=O)O)NC(=O)[C@H](CC(=O)O)NC3=O)NC1=O)CCCN2C(C)=O` (stereo partly drawn) [I-469, Ac-PL3-Asp-Ile-B5-Asp-Asp-Ala-Ala-Phe-Asn-S8-Phe-BztA-His-NH2], in the data set “CHI Log D procedure”, the “CHI Log D” value came to 2.354. The IC50 in data set [1] (setting [2]) and in data set [1] (read-out: FP EC50) was 0.027 µM throughout.
In general, chromatographic logD refers to lipophilicity estimated from chromatographic retention. Read a high chromatographic logD as a more lipophilic compound. In the data set “CHI Log D procedure”, `CC[C@H](C)[C@@H]1NC(=O)[C@H](CC(=O)O)NC(=O)[C@]2(CC=CCCCC3(CCCC=CCCCCCC[C@@](C)(C(=O)N[C@@H](Cc4ccccc4)C(=O)N[C@@H](Cc4csc5ccccc45)C(=O)N[C@@H](CCN)C(N)=O)NC(=O)[C@H](CCC(N)=O)NC(=O)[C@H](Cc4ccccc4)NC(=O)[C@H](C)NC(=O)[C@H](C)NC(=O)[C@H](CC(=O)O)NC(=O)[C@H](CC(=O)O)NC3=O)NC1=O)CCCN2C(C)=O` (stereo partly drawn) [I-482, Ac-PL3-Asp-Ile-B5-Asp-Asp-Ala-Ala-Phe-Gln-S8-Phe-BztA-Dab-NH2] displayed a chromatographic logD of 2.48. For the same molecule, the IC50 in data set [1] (setting [2]) came to 0.118 µM.
Molecule `CC[C@H](C)[C@@H]1NC(=O)[C@H](CC(=O)O)NC(=O)[C@]2(CC=CCCCC3(CCCC=CCCCCCC[C@@](C)(C(=O)N[C@@H](Cc4ccccc4)C(=O)N[C@@H](Cc4csc5ccccc45)C(=O)N[C@@H](CC(N)=O)C(N)=O)NC(=O)[C@H](CCC(N)=O)NC(=O)[C@H](Cc4ccccc4)NC(=O)[C@H](C)NC(=O)[C@H](C)NC(=O)[C@H](CCC(=O)O)NC(=O)[C@H](CC(=O)O)NC3=O)NC1=O)CCCN2C(C)=O` (stereo partly drawn) [I-495, Ac-PL3-Asp-Ile-B5-Asp-Glu-Ala-Ala-Phe-Gln-S8-Phe-BztA-Asn-NH2] showed a chromatographic logD in the data set “CHI Log D procedure” of 2.35. The IC50 in data set [1] (setting [2]) was found to be 0.181 µM.
`COc1ccccc1C[C@H](NC(=O)[C@]1(C)CCCCCCC=CCCCC2(CCCC=CC[C@]3(CCCN3C(C)=O)C(=O)N[C@@H](CC(=O)O)C(=O)N[C@@H](C)C(=O)N2)C(=O)N[C@@H](CC(=O)O)C(=O)N[C@@H](CCC(=O)O)C(=O)N[C@@H](C)C(=O)N[C@@H](C)C(=O)N[C@@H](Cc2ccccc2)C(=O)N[C@@H](CCC(N)=O)C(=O)N1)C(=O)N[C@@H](Cc1csc2ccccc12)C(=O)N[C@@H](CCC(N)=O)C(N)=O` (stereo partly drawn) [I-525, Ac-PL3-Asp-Ala-B5-Asp-Glu-Ala-Ala-Phe-Gln-S8-2OMeF-BztA-Gln-NH2]: the “CHI Log D” value in the data set “CHI Log D procedure” is listed as 2.019. Moreover, the IC50 in data set [1] (setting [2]) and in data set [1] (read-out: FP EC50) was 0.196 µM throughout.
For the molecule `COc1ccccc1C[C@H](NC(=O)[C@]1(C)CCCCCCC=CCCCC2(CCCC=CC[C@]3(CCCN3C(C)=O)C(=O)N[C@@H](CC(=O)O)C(=O)N[C@@H](C)C(=O)N2)C(=O)N[C@@H](CC(=O)O)C(=O)N[C@@H](CCC(=O)O)C(=O)N[C@@H](C)C(=O)N[C@@H](C)C(=O)N[C@@H](Cc2ccccc2)C(=O)N[C@@H](CCC(N)=O)C(=O)N1)C(=O)N[C@@H](Cc1csc2ccccc12)C(=O)N[C@@H](CCC(N)=O)C(N)=O` (stereo partly drawn) [I-526, Ac-PL3-Asp-Ala-B5-Asp-Glu-Ala-Ala-Phe-Gln-S8-2OMeF-BztA-Gln-NH2], in “CHI Log D procedure”, the “CHI Log D” value worked out at 2.049. The IC50 in data set [1] (setting [2]) and in data set [1] (read-out: FP EC50) was 0.056 µM in each case.
Take `CC[C@H](C)[C@@H]1NC(=O)[C@H](CC(=O)O)NC(=O)[C@]2(CC=CCCCC3(CCCC=CCCCCCC[C@@](C)(C(=O)N[C@@H](Cc4ccccc4OC)C(=O)N[C@@H](Cc4csc5ccccc45)C(=O)N[C@@H](CCC(N)=O)C(N)=O)NC(=O)[C@H](CCC(N)=O)NC(=O)[C@H](Cc4ccccc4)NC(=O)[C@H](C)NC(=O)[C@H](C)NC(=O)[C@H](CCC(=O)O)NC(=O)[C@H](CC(=O)O)NC3=O)NC1=O)CCCN2C(C)=O` (stereo partly drawn) [I-527, Ac-PL3-Asp-Ile-B5-Asp-Glu-Ala-Ala-Phe-Gln-S8-2OMeF-BztA-Gln-NH2]: the “CHI Log D” value in the data set “CHI Log D procedure” stood at 2.376. Further, the IC50 in data set [1] (setting [2]) and in data set [1] (read-out: FP EC50) was 0.098 µM in each case.
For the molecule `CC[C@H](C)[C@@H]1NC(=O)[C@H](CC(=O)O)NC(=O)[C@]2(CC=CCCCC3(CCCC=CCCCCCC[C@@](C)(C(=O)N[C@@H](Cc4ccccc4OC)C(=O)N[C@@H](Cc4csc5ccccc45)C(=O)N[C@@H](CCC(N)=O)C(N)=O)NC(=O)[C@H](CCC(N)=O)NC(=O)[C@H](Cc4ccccc4)NC(=O)[C@H](C)NC(=O)[C@H](C)NC(=O)[C@H](CCC(=O)O)NC(=O)[C@H](CC(=O)O)NC3=O)NC1=O)CCCN2C(C)=O` (stereo partly drawn) [I-528, Ac-PL3-Asp-Ile-B5-Asp-Glu-Ala-Ala-Phe-Gln-S8-2OMeF-BztA-Gln-NH2], the “CHI Log D” value in the data set “CHI Log D procedure” is 2.395. Moreover, the IC50 in data set [1] (setting [2]) and in data set [1] (read-out: FP EC50) was 0.063 µM throughout.
In the case of `CC(=O)N1CCC[C@]12CC=CCCCC1(CCCC=CCCCCCC[C@@](C)(C(=O)N[C@@H](Cc3ccccc3)C(=O)N[C@@H](Cc3csc4ccccc34)C(=O)N[C@@H](CCC(N)=O)C(N)=O)NC(=O)[C@H](CC(N)=O)NC(=O)[C@H](Cc3ccccc3)NC(=O)[C@H](C)NC(=O)[C@H](C)NC(=O)[C@H](CC(=O)O)NC(=O)[C@H](CC(=O)O)NC1=O)NC(=O)[C@H](CCC(C)C)NC(=O)[C@H](CC(=O)O)NC2=O` (stereo partly drawn) [I-547, Ac-PL3-Asp-hLeu-B5-Asp-Asp-Ala-Ala-Phe-Asn-S8-Phe-BztA-Gln-NH2], the “CHI Log D” value in the data set “CHI Log D procedure” is listed as 2.45. The IC50 in data set [1] (setting [2]) and in data set [1] (read-out: FP EC50) was 0.043 µM throughout.
On to `CC[C@H](C)[C@@H]1NC(=O)[C@H](CC(=O)O)NC(=O)[C@]2(CC=CCCCC3(CCCC=CCCCCCC[C@@](C)(C(=O)N[C@@H](Cc4ccccc4OC)C(=O)N[C@@H](Cc4csc5ccccc45)C(=O)N[C@@H](CCC(N)=O)C(N)=O)NC(=O)[C@H](CC(N)=O)NC(=O)[C@H](Cc4ccccc4)NC(=O)[C@H](C)NC(=O)[C@H](C)NC(=O)[C@H](CC(=O)O)NC(=O)[C@H](CC(=O)O)NC3=O)NC1=O)CCCN2C(C)=O` (stereo partly drawn) [I-549, Ac-PL3-Asp-Ile-B5-Asp-Asp-Ala-Ala-Phe-Asn-S8-2OMeF-BztA-Gln-NH2], for which the “CHI Log D” value in “CHI Log D procedure” is recorded as 2.291. Besides, the IC50 in data set [1] (setting [2]) and in data set [1] (read-out: FP EC50) was 0.071 µM in each case.
Regarding `CC[C@H](C)[C@@H]1NC(=O)[C@H](CC(=O)O)NC(=O)[C@]2(CC=CCCCC3(CCCC=CCCCCCC[C@@](C)(C(=O)N[C@@H](Cc4ccsc4)C(=O)N[C@@H](Cc4csc5ccccc45)C(=O)N[C@@H](CCC(N)=O)C(N)=O)NC(=O)[C@H](CC(N)=O)NC(=O)[C@H](Cc4ccccc4)NC(=O)[C@H](C)NC(=O)[C@H](C)NC(=O)[C@H](CC(=O)O)NC(=O)[C@H](CC(=O)O)NC3=O)NC1=O)CCCN2C(C)=O` (stereo partly drawn) [I-552, Ac-PL3-Asp-Ile-B5-Asp-Asp-Ala-Ala-Phe-Asn-S8-3Thi-BztA-Gln-NH2], the “CHI Log D” value in “CHI Log D procedure” came out at 2.334. Further, the IC50 in data set [1] (setting [2]) and in data set [1] (read-out: FP EC50) was 0.0155 µM in each case.
On to `CC[C@H](C)[C@@H]1NC(=O)[C@H](CC(=O)O)NC(=O)[C@]2(CC=CCCCC3(CCCC=CCCCCCC[C@@](C)(C(=O)N[C@@H](Cc4ccccc4OC)C(=O)N[C@@H](Cc4csc5ccccc45)C(=O)N[C@@H](Cc4c[nH]cn4)C(N)=O)NC(=O)[C@H](CC(N)=O)NC(=O)[C@H](Cc4ccccc4)NC(=O)[C@H](C)NC(=O)[C@H](C)NC(=O)[C@H](CC(=O)O)NC(=O)[C@H](CC(=O)O)NC3=O)NC1=O)CCCN2C(C)=O` (stereo partly drawn) [I-553, Ac-PL3-Asp-Ile-B5-Asp-Asp-Ala-Ala-Phe-Asn-S8-2OMeF-BztA-His-NH2], for which the “CHI Log D” value in the data set “CHI Log D procedure” turned out to be 2.398. Moreover, the IC50 in data set [1] (setting [2]) and in data set [1] (read-out: FP EC50) was 0.061 µM each time.
Take `CC(=O)N1CCC[C@]12CC=CCCCC1(CCCC=CCCCCCC[C@@](C)(C(=O)N[C@@H](Cc3ccccc3)C(=O)N[C@@H](Cc3csc4ccccc34)C(=O)N[C@@H](CCC(N)=O)C(N)=O)NC(=O)[C@H](CCC(N)=O)NC(=O)[C@H](Cc3ccccc3)NC(=O)[C@H](C)NC(=O)[C@H](C)NC(=O)[C@H](CC(=O)O)NC(=O)[C@H](CC(=O)O)NC1=O)NC(=O)[C@H](CC(C)C)NC(=O)[C@H](CC(=O)O)NC2=O` (stereo partly drawn) [I-558, Ac-PL3-Asp-Leu-B5-Asp-Asp-Ala-Ala-Phe-Gln-S8-Phe-BztA-Gln-NH2]: the “CHI Log D” value in “CHI Log D procedure” was 2.308. For the same molecule, the IC50 in data set [1] (setting [2]) and in data set [1] (read-out: FP EC50) was 0.056 µM each time.
With `CC(=O)N1CCC[C@]12CC=CCCCC1(CCCC=CCCCCCC[C@@](C)(C(=O)N[C@@H](Cc3ccccc3)C(=O)N[C@@H](Cc3csc4ccccc34)C(=O)N[C@@H](CCC(N)=O)C(N)=O)NC(=O)[C@H](CCC(N)=O)NC(=O)[C@H](Cc3ccccc3)NC(=O)[C@H](C)NC(=O)[C@H](C)NC(=O)[C@H](CC(=O)O)NC(=O)[C@H](CC(=O)O)NC1=O)NC(=O)[C@H](CC(C)C)NC(=O)[C@H](CC(=O)O)NC2=O` (stereo partly drawn) [I-559, Ac-PL3-Asp-Leu-B5-Asp-Asp-Ala-Ala-Phe-Gln-S8-Phe-BztA-Gln-NH2], in the data set “CHI Log D procedure”, the “CHI Log D” value turned out to be 2.341. Moreover, the IC50 in data set [1] (setting [2]) and in data set [1] (read-out: FP EC50) was 0.043 µM in each case.
